Source: patent US20010044457A1, “Cancer Treatment” (priority 2000, published 2001)

System: pancreatic (MiaPaCa) cancer
Assay: in vivo pancreatic (MiaPaCa) cancer nude mouse tumor model
Procedure: The control is PEG. Both the control and the active are given once a week to the end. The doses were 500 mg/kg, 750 mg/kg and 1000 mg/kg. The surviving animals average tumor weight in mg is: […]

COc1ccc(C=Nn2cc(-c3ccccc3)nc2N)cc1 [2-Amino-1-(4-methoxybenzyliden)amino-4-phenylimidazole]
Deaths (500 mg/kg once a week, Day 1): 0
Tumor Weight (surviving animals average) (500 mg/kg once a week, Day 1): 77 mg
Deaths (500 mg/kg once a week, Day 5): 0
Tumor Weight (surviving animals average) (500 mg/kg once a week, Day 5): 161 mg
Deaths (500 mg/kg once a week, Day 9): 0
Tumor Weight (surviving animals average) (500 mg/kg once a week, Day 9): 322 mg
Deaths (500 mg/kg once a week, Day 12): 0
Tumor Weight (surviving animals average) (500 mg/kg once a week, Day 12): 271 mg
Deaths (500 mg/kg once a week, Day 16): 0
Tumor Weight (surviving animals average) (500 mg/kg once a week, Day 16): 596 mg
Deaths (500 mg/kg once a week, Day 19): 0
Tumor Weight (surviving animals average) (500 mg/kg once a week, Day 19): 640 mg
Deaths (500 mg/kg once a week, Day 23): 0
Tumor Weight (surviving animals average) (500 mg/kg once a week, Day 23): 638 mg
Deaths (500 mg/kg once a week, Day 26): 0
Tumor Weight (surviving animals average) (500 mg/kg once a week, Day 26): 532 mg
efficacy in tumor model (500 mg/kg, 750 mg/kg and 1000 mg/kg once a week, control PEG): dose responsive efficacy
Deaths (750 mg/kg once a week, Day 1): 0
Tumor Weight (surviving animals average) (750 mg/kg once a week, Day 1): 76 mg
Deaths (750 mg/kg once a week, Day 5): 0
Tumor Weight (surviving animals average) (750 mg/kg once a week, Day 5): 117 mg
Deaths (750 mg/kg once a week, Day 9): 0
Tumor Weight (surviving animals average) (750 mg/kg once a week, Day 9): 290 mg
Deaths (750 mg/kg once a week, Day 12): 0
Tumor Weight (surviving animals average) (750 mg/kg once a week, Day 12): 281 mg
Deaths (750 mg/kg once a week, Day 16): 0
Tumor Weight (surviving animals average) (750 mg/kg once a week, Day 16): 369 mg
Deaths (750 mg/kg once a week, Day 19): 0
Tumor Weight (surviving animals average) (750 mg/kg once a week, Day 19): 364 mg
Deaths (750 mg/kg once a week, Day 23): 0
Tumor Weight (surviving animals average) (750 mg/kg once a week, Day 23): 420 mg
Deaths (750 mg/kg once a week, Day 26): 0
Tumor Weight (surviving animals average) (750 mg/kg once a week, Day 26): 418 mg
Deaths (1000 mg/kg once a week, Day 1): 0
Tumor Weight (surviving animals average) (1000 mg/kg once a week, Day 1): 90 mg
Deaths (1000 mg/kg once a week, Day 5): 0
Tumor Weight (surviving animals average) (1000 mg/kg once a week, Day 5): 90 mg
Deaths (1000 mg/kg once a week, Day 9): 0
Tumor Weight (surviving animals average) (1000 mg/kg once a week, Day 9): 150 mg
Deaths (1000 mg/kg once a week, Day 12): 0
Tumor Weight (surviving animals average) (1000 mg/kg once a week, Day 12): 130 mg
Deaths (1000 mg/kg once a week, Day 16): 0
Tumor Weight (surviving animals average) (1000 mg/kg once a week, Day 16): 120 mg
Deaths (1000 mg/kg once a week, Day 19): 1
Tumor Weight (surviving animals average) (1000 mg/kg once a week, Day 19): 110 mg
Deaths (1000 mg/kg once a week, Day 23): 0
Tumor Weight (surviving animals average) (1000 mg/kg once a week, Day 23): 198 mg
Deaths (1000 mg/kg once a week, Day 26): 0
Tumor Weight (surviving animals average) (1000 mg/kg once a week, Day 26): 192 mg
